According to US11357777B2, “Use of sGC stimulators for the treatment of nonalcoholic steatohepatitis (NASH)” (Cyclerion Therapeutics, Inc., priority 2016, dated 2022):

Assays:
[1] = tested on: mice fed a high-fat diet deficient in choline and methionine; experiment: Mouse on a methionine/choline deficient high-fat diet (MCD-HFD); type: in vivo; conditions: for macrophage numbers, inflammatory infiltrate by F4/80 immunohistochemistry: statistically significant; for levels of mRNA expression for all markers of liver fibrosis / levels of mRNA expression for all markers of liver inflammation: vs control Group II
Protocol: The study was performed in mice fed a high-fat diet deficient in choline and methionine (MCD-HFD or MCD diet), a model that reproduces the clinical manifestations of human steatohepatitis and fibrosis in mice. These mice received the sGC stimulator Compound B prophylactically (at two doses, 1 and 3 mg/kg/day in the food), starting at the same time as the start of the administration of the high-fat diet deficient in choline/methionine, and before animals started manifesting clinical signs of steatohepatitis.
The prophylactic treatment with Compound B proceeded for a total of 9 weeks simultaneously with the high-fat diet deficient in choline/methionine administration. At the end of the treatment, the degree of inflammation was assessed in the liver by determining levels of gene expression for IL-6, TNFα, IL-10, MCP-1β, IL-1 and IL-Ira, by real-time PCR. Inflammation levels were also determined by assessing inflammatory infiltrate by F4/80 immunohistochemistry, and necroinflammation was assessed by hematoxylin-eosin staining. Liver fibrosis was determined by measuring levels of gene expression for collagen type I and II, MMP-2, TIMP-1 and TGFβ1 at the mRNA level. Histological analysis was carried out of tissue sections stained with Masson's trichrome and Sirius Red.
Group I (n=5): Chow Control group received a matching sucrose diet equivalent to the high-fat diet (HFD) for 9 weeks.
Group II (n=15): Choline/methionine deficient HFD Control group (MCD control group) received a Choline/methionine deficient HFD diet for 9 weeks.
Group III (n=10): Choline/methionine deficient HFD for 9 weeks supplemented with Compound B dosed in food (1 mg/kg body weight/day). (IW1 group)
Group IV (n=10): Choline/methionine deficient HFD for 9 weeks supplemented with Compound B dosed in food (3 mg/kg body weight/day). (IW3 group)
After treatment, animals were sacrificed and liver and blood samples were collected. The effects of the sGC stimulator on liver weight, steatosis, inflammation and fibrosis were evaluated as follows:
Total RNA was obtained with the RNAqueous kit. RNA concentrations were assessed in a UV-spectrophotometer and the RNA's integrity tested on a 6000 LabChip in a 2100 Bioanalyzer (Agilent Technologies, Palo Alto, Calif.). First strand cDNA synthesis was performed by incubating 1 μg of total RNA with 2.5 μl of 10×RT buffer, 1 μl of 25×dNTPs, 2.5 μl of 10× Primers and 1.25 μl of reverse transcriptase (25 μl final volume) for 10 minutes at 25° C. following 2 hours at 37° C. in a ABI thermal cycler. Ready-to-use primer and probe sets pre-developed by Applied Biosystems (TaqMan Gene Expression Assays) were used to quantify gene expression using R-actin as an endogenous control. Briefly, PCR reactions were performed in duplicate using the Universal TaqMan 2×PCR mastermix in a volume of 20 μl containing 1.25 μl cDNA. Real-time quantitative PCR was performed with an ABI Prism 7900 Sequence Detection System (Applied Biosystems) using the fluorescent TaqMan methodology. Real time PCR results were analyzed with the Sequence Detector Software version 2.1 (Applied Biosystems) and relative quantitation of gene expression was performed using the 2-ΔΔ Ct method. (User Bulletin #2; http://docs.appliedbiosystems.com/pebiodocs/04303859.pdf).
Tissue samples fixed in 10% formalin were embedded in paraffin, cut into 5 μm sections, stained with H&E and analyzed by a registered pathologist unaware of the treatments. Tissue sections were incubated for 10 minutes in 0.5% thiosemicarbazide and stained in 0.1% Sirius Red F3B in saturated picric acid for 1 hour, and subsequently washed with an acetic acid solution (0.5%). Masson's trichrome staining was performed at the Pathology Department of the Hospital Clinic, Barcelona, Spain. […]

[2] = Single ascending dose Phase I study in healthy volunteers; type: in vivo, human; conditions: oral capsule, top-line clinical data
Text: In a randomized, double-blind, placebo-controlled, single ascending dose Phase I study enrolling 46 healthy volunteers, participants were randomized 3:1 to receive a single dose of Compound B or placebo administered via an oral capsule.

[3] = 3 mg/kg in food, 9 weeks (Group IV) vs control Group II
[4] = Group III (1 mg/kg/day), 9 weeks
[5] = Group IV (3 mg/kg/day), 9 weeks

## OC(CNc1nc(-c2cc(-c3ccon3)n(Cc3ccccc3F)n2)ncc1F)(C(F)(F)F)C(F)(F)F [Compound B]
[1]; 1 mg/kg (Group III) vs control group II
  Total NAS: reduced
[1]; 1 mg/kg in food, 9 weeks (Group III)
  fibrosis as detected using Picrosirius Red staining: significantly reduced
[1]; 3 mg/kg (Group IV) vs control group II
  Total NAS: reduced
[1]; 3 mg/kg in food, 9 weeks (Group IV)
  fibrosis as detected using Picrosirius Red staining: significantly reduced
[1]; [3]
  liver tissue weight versus total body weight ratio: statistically significant reduction
  percentage of white adipose tissue in the liver: statistically significant reduction
[1]; 1 and 3 mg/kg in food, 9 weeks, FIG. 4
  reduction of fibrosis by analysis of trichrome stain and α-SMA deposition: confirmed
[1]; Group III (1 mg/kg) vs control group II
  macrophage numbers, inflammatory infiltrate by F4/80 immunohistochemistry: decrease
[1]; [4]
  levels of mRNA expression for all markers of liver fibrosis: reduced in a statistically significant manner
  levels of mRNA expression for all markers of liver inflammation: reduced in a statistically significant manner
[1]; Group IV (3 mg/kg) vs control group II
  macrophage numbers, inflammatory infiltrate by F4/80 immunohistochemistry: decrease
[1]; [5]
  levels of mRNA expression for all markers of liver fibrosis: reduced in a statistically significant manner
  levels of mRNA expression for all markers of liver inflammation: reduced in a statistically significant manner
[2]
  distribution to tissues: evidence of extensive distribution to tissues
